What all share (assay type): functional
Assay [1] has as its target T1, High affinity choline transporter 1 (Homo sapiens, UniProt Q9GZV3).
T1 sequence (Q9GZV3 whole entry): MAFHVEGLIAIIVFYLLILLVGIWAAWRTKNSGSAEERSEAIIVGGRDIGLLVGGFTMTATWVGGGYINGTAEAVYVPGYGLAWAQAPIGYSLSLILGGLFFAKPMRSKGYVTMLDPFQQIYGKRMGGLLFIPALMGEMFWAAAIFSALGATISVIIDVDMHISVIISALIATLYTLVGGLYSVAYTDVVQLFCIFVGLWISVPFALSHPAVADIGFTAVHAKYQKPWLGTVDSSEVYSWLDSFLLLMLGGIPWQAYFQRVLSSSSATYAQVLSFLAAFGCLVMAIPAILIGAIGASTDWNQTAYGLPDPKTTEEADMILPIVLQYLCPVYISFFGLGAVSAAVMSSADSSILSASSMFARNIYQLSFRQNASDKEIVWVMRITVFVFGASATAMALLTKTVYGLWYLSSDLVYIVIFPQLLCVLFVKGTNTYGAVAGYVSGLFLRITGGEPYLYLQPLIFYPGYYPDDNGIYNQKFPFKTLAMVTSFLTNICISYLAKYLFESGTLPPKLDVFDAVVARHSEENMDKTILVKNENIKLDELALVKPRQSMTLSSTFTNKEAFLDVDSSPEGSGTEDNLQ
The experiment in a line: human choline transporter blockers, potency – cell-based, 10-point CRC, membrane potential dye, dose response (AID 588401).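 Also: membrane potential dye fluorescence of choline-evoked depolarization via CHT.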

In assay [2] the target is T1, High affinity choline transporter 1. The assay can be described thus: human choline transporter blockers, potency – cell-based, 5-point CRC, membrane potential dye, dose response (AID 504840).
In another assay the target is T2, Aurora kinase A (Homo sapiens, UniProt O14965).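 Also: value from the Navigating the Kinome kinase panel profiling, panel entry STK6.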
T2 sequence (O14965 whole entry): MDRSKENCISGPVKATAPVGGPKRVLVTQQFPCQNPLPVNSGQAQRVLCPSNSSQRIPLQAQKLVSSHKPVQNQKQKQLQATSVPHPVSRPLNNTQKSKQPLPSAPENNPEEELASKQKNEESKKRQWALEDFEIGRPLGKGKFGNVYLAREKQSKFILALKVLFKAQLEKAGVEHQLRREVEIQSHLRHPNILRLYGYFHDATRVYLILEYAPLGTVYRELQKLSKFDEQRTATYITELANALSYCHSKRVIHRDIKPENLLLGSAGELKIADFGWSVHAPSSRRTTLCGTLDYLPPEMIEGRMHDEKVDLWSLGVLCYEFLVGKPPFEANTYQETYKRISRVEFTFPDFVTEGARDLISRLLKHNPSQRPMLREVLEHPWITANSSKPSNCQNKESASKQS

For assay [3], the target named is Cell division cycle 7-related protein kinase (Homo sapiens, UniProt O00311).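 Also: value obtained from a kinome-wide kinase panel.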
In the next assay the target is Aurora kinase B (Homo sapiens, UniProt Q96GD4).
A further assay addresses Wee1-like protein kinase (Homo sapiens, UniProt P30291). The experiment in a line: Navigating the Kinome. Panel member name: WEE1.
In assay [4] the target is ALK tyrosine kinase receptor (Homo sapiens, UniProt Q9UM73).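 Also: ALK tested as one member of a kinase panel screen.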
The target in assay [5] is Neuropeptides B/W receptor type 1 (Homo sapiens, UniProt P48145). The experiment in a line: human NPBW1 receptor blockade, IC50 – cell-based, fluorescence, dose response, set 6, late-stage follow-up (AID 588583).
Assay [6] addresses Melanin-concentrating hormone receptor 1 (Homo sapiens, UniProt Q99705). The assay can be described thus: Late-stage fluorescence-based counterscreen for antagonists of the G-protein coupled receptor 7 (GPR7): cell-based dose response assay to identify antagonists of the melanin-concentrating hormone receptor 1 (MCHR1) Set 6.

Molecules are shown by their SMILES. Active and inactive are the calls of the source.

Sequence of Neuropeptides B/W receptor type 1 (P48145 whole entry): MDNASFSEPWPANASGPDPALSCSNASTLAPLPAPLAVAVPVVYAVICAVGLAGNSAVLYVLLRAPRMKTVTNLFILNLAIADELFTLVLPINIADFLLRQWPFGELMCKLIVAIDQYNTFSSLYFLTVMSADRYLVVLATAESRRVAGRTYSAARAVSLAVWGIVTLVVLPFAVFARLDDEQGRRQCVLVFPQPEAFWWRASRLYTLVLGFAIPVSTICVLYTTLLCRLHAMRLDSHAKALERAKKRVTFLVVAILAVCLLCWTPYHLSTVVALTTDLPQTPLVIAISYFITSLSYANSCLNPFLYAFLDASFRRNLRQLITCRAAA
Sequence of Melanin-concentrating hormone receptor 1 (Q99705 whole entry): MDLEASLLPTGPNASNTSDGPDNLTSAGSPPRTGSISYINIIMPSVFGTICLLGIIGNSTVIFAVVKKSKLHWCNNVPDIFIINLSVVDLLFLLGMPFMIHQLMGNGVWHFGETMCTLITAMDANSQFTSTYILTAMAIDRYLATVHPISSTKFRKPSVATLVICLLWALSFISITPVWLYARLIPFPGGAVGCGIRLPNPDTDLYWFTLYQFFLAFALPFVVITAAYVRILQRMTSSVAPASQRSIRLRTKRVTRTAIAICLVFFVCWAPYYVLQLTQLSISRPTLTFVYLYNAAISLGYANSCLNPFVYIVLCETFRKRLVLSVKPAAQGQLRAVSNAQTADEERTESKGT
Sequence of Cell division cycle 7-related protein kinase (O00311 whole entry): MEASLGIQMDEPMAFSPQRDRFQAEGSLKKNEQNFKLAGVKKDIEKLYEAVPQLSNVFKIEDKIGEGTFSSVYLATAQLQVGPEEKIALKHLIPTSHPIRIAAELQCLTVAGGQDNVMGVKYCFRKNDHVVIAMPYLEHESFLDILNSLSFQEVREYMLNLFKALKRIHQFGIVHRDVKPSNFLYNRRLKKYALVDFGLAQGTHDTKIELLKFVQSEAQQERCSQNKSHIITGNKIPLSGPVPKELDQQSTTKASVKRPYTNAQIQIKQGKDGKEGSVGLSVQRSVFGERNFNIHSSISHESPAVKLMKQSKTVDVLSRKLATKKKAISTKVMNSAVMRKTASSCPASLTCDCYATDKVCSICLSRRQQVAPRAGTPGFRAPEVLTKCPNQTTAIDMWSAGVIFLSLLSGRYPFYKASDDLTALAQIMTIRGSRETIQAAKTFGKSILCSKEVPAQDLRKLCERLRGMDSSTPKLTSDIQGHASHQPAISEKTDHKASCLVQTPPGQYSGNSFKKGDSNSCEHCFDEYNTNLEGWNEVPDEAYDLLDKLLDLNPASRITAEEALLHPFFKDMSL
Sequence of Aurora kinase B (Q96GD4 whole entry): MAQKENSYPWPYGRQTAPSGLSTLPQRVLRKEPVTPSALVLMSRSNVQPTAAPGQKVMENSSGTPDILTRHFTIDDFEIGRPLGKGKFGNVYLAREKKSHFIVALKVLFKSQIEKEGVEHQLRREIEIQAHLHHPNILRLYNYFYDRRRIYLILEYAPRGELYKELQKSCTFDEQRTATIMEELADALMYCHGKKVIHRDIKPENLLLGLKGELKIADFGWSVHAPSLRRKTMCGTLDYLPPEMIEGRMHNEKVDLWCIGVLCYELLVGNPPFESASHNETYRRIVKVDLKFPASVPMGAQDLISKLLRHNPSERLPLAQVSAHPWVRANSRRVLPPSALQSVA
Sequence of Wee1-like protein kinase (P30291 whole entry): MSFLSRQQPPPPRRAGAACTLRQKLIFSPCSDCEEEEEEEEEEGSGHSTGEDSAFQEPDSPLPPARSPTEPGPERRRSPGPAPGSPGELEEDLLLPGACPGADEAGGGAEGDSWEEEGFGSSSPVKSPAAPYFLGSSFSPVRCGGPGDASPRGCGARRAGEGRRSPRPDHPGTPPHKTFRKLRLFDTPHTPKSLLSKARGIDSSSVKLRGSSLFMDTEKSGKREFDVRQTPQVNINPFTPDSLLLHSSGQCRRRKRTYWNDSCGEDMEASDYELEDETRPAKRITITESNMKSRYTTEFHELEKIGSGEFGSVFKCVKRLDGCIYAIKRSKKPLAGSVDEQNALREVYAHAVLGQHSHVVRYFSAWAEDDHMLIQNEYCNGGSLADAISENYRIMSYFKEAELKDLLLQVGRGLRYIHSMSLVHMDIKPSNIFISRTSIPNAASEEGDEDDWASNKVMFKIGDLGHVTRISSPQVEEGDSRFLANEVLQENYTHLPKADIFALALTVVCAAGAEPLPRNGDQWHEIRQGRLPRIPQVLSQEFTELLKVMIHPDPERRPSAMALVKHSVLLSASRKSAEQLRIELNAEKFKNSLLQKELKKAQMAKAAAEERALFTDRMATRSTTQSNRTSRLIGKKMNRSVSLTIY
Sequence of ALK tyrosine kinase receptor (Q9UM73 whole entry): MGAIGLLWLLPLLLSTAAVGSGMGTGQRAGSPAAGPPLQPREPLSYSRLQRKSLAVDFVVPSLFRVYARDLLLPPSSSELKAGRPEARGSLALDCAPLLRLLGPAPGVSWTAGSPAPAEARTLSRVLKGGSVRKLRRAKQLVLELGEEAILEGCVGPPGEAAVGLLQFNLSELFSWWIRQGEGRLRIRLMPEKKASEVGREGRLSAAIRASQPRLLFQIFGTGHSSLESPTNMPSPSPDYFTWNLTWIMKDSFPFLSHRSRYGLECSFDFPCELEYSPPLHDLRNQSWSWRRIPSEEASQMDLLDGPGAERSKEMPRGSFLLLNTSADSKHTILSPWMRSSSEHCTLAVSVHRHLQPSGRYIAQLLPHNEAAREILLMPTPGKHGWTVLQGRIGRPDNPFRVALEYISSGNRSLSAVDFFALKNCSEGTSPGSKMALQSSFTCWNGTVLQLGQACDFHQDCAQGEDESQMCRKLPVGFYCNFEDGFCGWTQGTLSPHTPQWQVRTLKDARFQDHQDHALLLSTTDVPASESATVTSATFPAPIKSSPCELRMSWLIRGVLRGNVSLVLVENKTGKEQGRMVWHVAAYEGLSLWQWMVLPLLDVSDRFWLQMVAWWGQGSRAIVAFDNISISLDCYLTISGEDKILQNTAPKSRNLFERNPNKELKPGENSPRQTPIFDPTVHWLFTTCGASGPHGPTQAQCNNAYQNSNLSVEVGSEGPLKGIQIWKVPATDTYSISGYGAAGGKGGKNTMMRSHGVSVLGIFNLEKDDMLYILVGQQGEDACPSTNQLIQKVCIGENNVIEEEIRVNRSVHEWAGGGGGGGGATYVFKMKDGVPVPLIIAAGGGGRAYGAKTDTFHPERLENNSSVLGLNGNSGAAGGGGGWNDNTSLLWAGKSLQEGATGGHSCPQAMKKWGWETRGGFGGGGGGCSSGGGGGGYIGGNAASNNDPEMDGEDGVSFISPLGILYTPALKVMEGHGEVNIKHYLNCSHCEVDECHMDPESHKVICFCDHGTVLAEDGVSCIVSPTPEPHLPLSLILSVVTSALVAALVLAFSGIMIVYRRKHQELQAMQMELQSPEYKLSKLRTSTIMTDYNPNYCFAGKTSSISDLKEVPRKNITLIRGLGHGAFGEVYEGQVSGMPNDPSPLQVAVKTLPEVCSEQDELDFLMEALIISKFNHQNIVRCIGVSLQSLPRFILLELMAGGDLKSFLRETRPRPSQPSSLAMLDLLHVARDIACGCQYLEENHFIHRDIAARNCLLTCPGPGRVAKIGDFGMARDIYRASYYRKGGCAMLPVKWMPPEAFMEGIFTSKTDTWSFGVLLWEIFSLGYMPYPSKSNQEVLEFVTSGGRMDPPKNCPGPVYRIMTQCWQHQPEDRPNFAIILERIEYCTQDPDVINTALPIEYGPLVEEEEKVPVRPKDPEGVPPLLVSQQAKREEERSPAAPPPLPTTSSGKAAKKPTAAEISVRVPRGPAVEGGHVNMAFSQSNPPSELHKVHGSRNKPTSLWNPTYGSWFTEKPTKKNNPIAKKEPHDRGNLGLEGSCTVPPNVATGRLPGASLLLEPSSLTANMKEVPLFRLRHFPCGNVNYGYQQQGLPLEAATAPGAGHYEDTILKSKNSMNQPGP

Regarding `CC(CN1CCN(C)CC1)OC(=O)c1ccccc1Cl` (centres undefined), the IC50 in assay [1] is 4.22 µM (active); in [2] it was 10 µM (active).
`COc1ccc(Nc2nccc(Nc3ccccc3C(=O)O)n2)cc1O`: the Ki on Aurora kinase A was 20 nM (active); in assay [3], 0.126 nM (active); on Aurora kinase B, 5.01 nM (active).
Take `CCN1CCN(c2ccc(Nc3ncc(C(F)(F)F)c(Nc4ccc5[nH]ncc5c4)n3)cc2)CC1`: the Ki at Wee1-like protein kinase was 7.94 nM (active); in assay [4], 15.8 nM (active).
`CCOc1ccccc1Cn1ncc(Cl)c(Oc2ccc(OC)cc2)c1=O`: the IC50 in assay [5] and in [6] was ~624 nM (active) each time.

The values above are taken from ChEMBL document CHEMBL1201862, “PubChem BioAssay data set” (2004).
